The numbers were not newly measured in paper PMC9516332 (Frontiers in Oncology, 2022), which cites them from elsewhere.

What all share (settings): cited from earlier work
Series [1] has as its target panel of 255 wild-type kinases (Homo sapiens, UniProt Q13557).
In series [2] the target is panel of 255 wild-type kinases (Homo sapiens, UniProt P22607).
The target in series [3] is T1, panel of 255 wild-type kinases (Homo sapiens, UniProt Q06418).
T1 sequence (Q06418 41-890): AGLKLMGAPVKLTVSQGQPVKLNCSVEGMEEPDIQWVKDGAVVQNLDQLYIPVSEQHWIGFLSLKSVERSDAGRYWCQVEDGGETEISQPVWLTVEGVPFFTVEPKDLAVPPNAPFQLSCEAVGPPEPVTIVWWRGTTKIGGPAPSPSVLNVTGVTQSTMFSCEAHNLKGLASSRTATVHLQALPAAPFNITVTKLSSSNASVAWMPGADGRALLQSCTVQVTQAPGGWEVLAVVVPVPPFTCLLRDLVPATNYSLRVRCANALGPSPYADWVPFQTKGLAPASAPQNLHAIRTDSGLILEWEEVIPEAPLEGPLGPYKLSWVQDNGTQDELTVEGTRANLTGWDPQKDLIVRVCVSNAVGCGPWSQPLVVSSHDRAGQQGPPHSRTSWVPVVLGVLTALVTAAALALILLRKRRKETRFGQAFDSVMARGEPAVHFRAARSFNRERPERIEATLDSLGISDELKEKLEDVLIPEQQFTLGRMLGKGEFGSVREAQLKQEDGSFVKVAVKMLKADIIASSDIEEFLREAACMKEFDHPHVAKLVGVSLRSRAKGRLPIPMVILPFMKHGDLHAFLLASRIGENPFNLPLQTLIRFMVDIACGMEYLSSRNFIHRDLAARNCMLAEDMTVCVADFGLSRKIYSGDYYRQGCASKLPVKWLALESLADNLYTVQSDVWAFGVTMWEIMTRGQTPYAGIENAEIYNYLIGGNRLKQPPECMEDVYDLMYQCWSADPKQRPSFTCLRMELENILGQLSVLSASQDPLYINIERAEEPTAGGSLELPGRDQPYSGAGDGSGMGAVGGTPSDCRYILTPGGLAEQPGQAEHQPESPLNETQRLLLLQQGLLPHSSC

In series [4] the target is T2, panel of 255 wild-type kinases (Homo sapiens, UniProt Q9HBY8).
T2 sequence (Q9HBY8 1-367): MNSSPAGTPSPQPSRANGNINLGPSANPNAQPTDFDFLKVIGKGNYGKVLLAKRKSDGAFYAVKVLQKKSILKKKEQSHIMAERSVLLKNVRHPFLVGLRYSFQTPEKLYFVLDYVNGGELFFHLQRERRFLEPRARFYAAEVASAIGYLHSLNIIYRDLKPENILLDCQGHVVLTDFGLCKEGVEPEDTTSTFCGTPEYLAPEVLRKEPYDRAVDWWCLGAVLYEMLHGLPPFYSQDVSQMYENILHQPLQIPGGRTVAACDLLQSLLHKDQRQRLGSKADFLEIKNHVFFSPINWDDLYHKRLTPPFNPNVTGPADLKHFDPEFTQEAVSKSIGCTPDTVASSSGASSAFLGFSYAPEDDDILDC

Series [5] deals with panel of 255 wild-type kinases (Homo sapiens, UniProt P07948).
In series [6] the target is panel of 255 wild-type kinases (Homo sapiens, UniProt Q9P0L2).
Series [7] deals with panel of 255 wild-type kinases (Homo sapiens, UniProt O75676).
Series [8] has as its target T3, panel of 255 wild-type kinases (Homo sapiens, UniProt O14757).
T3 sequence (O14757 1-476): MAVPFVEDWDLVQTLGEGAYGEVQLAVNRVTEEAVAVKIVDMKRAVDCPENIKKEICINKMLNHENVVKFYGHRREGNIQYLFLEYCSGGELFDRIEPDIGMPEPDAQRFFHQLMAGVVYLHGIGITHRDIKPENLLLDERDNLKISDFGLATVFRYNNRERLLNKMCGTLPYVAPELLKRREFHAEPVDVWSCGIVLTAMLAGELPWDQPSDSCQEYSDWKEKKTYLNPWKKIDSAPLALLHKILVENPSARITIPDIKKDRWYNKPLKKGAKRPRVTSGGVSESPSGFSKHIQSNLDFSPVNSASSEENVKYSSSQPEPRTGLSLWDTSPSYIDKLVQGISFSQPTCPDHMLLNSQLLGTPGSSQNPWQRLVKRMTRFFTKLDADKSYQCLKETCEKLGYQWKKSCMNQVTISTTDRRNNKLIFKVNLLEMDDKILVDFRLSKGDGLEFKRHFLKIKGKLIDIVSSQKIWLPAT

In series [9] the target is panel of 255 wild-type kinases (Homo sapiens, UniProt Q96GD4).
Series [10] has as its target panel of 255 wild-type kinases (Homo sapiens, UniProt P23443).
The target in series [11] is panel of 255 wild-type kinases (Homo sapiens, UniProt P53350).
Setting [12] is: CaMK2δ kinase assay, 1 µmol/L single concentration, ref DOI: 10.1158/1535-7163.MCT-18-0877.
Setting [13] is: kinase FGFR3, 1 µmol/L single concentration, ref DOI: 10.1158/1535-7163.MCT-18-0877.
Setting [14] is: kinase TYRO3, 1 µmol/L single concentration, ref DOI: 10.1158/1535-7163.MCT-18-0877.
Setting [15] is: kinase SGK2, 1 µmol/L single concentration, ref DOI: 10.1158/1535-7163.MCT-18-0877.
[16] abbreviates: kinase LYNa, 1 µmol/L single concentration, ref DOI: 10.1158/1535-7163.MCT-18-0877.
Where [17] appears, read: MARK1, 1 µmol/L single concentration, ref DOI: 10.1158/1535-7163.MCT-18-0877.
[18] abbreviates: MSK2, 1 µmol/L single concentration, ref DOI: 10.1158/1535-7163.MCT-18-0877.
Setting [19] is: CHK1 kinase assay, 1 µmol/L single concentration, ref DOI: 10.1158/1535-7163.MCT-18-0877.
The mark [20] stands for this setting: AurB kinase assay, 1 µmol/L single concentration, ref DOI: 10.1158/1535-7163.MCT-18-0877.
Where [21] appears, read: p70S6K, 1 µmol/L single concentration, ref DOI: 10.1158/1535-7163.MCT-18-0877.
The mark [22] stands for this setting: kinase PLK1, 1 µmol/L single concentration, ref DOI: 10.1158/1535-7163.MCT-18-0877.

The structures appear in SMILES notation. Read-outs that look alike come from different tables or passages of the source.

Consider `CCCS(=O)(=O)Nc1ccc(F)c(C(=O)c2c[nH]c3ncc(-c4ccc(Cl)cc4)cc23)c1F` [vemurafenib], for which the “%-inhibition CaMK2δ” value in [1] (CaMK2δ kinase assay, 1 µmol/L single concentration, ref DOI: 10.1371/journal.pone.0092146) is on record as -0.235%. Besides, the “%-inhibition at 1 µmol/L, FGFR3” value in series [2] (kinase FGFR3, 1 µmol/L single concentration, ref DOI: 10.1371/journal.pone.0092146) is listed as 15%. The “%-inhibition at 1 µmol/L, TYRO3” value in series [3] (kinase TYRO3, 1 µmol/L single concentration, ref DOI: 10.1371/journal.pone.0092146) was 3.16%. Also, the “%-inhibition at 1 µmol/L, SGK2” value in series [4] (kinase SGK2, 1 µmol/L single concentration, ref DOI: 10.1371/journal.pone.0092146) is listed as 2.66%. For the same molecule, the “%-inhibition at 1 µmol/L, LYNa” value in [5] (kinase LYNa, 1 µmol/L single concentration, ref DOI: 10.1371/journal.pone.0092146) is listed as 73%. Moreover, the “%-inhibition, MARK1” value in series [6] (MARK1, 1 µmol/L single concentration, ref DOI: 10.1371/journal.pone.0092146) is on record as -9%. In addition, in [7] (MSK2, 1 µmol/L single concentration, ref DOI: 10.1371/journal.pone.0092146), the “%-inhibition, MSK2” value is recorded as -1%. The “%-inhibition CHK1” value in [8] (CHK1 kinase assay, 1 µmol/L single concentration, ref DOI: 10.1371/journal.pone.0092146) is reported as 4%. In series [9] (AurB kinase assay, 1 µmol/L single concentration, ref DOI: 10.1371/journal.pone.0092146), the “%-inhibition AurB” value is given as 6%. In addition, the “%-inhibition, p70S6K” value in series [10] (p70S6K, 1 µmol/L single concentration, ref DOI: 10.1371/journal.pone.0092146) is 9%. Further, the “%-inhibition at 1 µmol/L, PLK1” value in series [11] (kinase PLK1, 1 µmol/L single concentration, ref DOI: 10.1371/journal.pone.0092146) is recorded as -4%.

Turning to `O=C(c1ccc(F)c(F)c1Nc1ccc(I)cc1F)N1CC(O)([C@@H]2CCCCN2)C1` [cobimetinib], the “%-inhibition CaMK2δ” value in series [1] (setting [12]) is reported as 1.1%. Besides, the “%-inhibition at 1 µmol/L, FGFR3” value in series [2] (setting [13]) is 5%. The “%-inhibition at 1 µmol/L, TYRO3” value in [3] (setting [14]) is listed as 4.55%. Further, the “%-inhibition at 1 µmol/L, SGK2” value in series [4] (setting [15]) was 7%. The “%-inhibition at 1 µmol/L, LYNa” value in series [5] (setting [16]) is recorded as -1.81%. In addition, the “%-inhibition, MARK1” value in series [6] (setting [17]) is on record as -5%. Further, the “%-inhibition, MSK2” value in series [7] (setting [18]) is -0.0695%. Also, the “%-inhibition CHK1” value in series [8] (setting [19]) is 9%. The “%-inhibition AurB” value in series [9] (setting [20]) is listed as -11%. Moreover, in series [10] (setting [21]), the “%-inhibition, p70S6K” value is given as 19%. The “%-inhibition at 1 µmol/L, PLK1” value in series [11] (setting [22]) was -1.08%.

For the molecule `CC#CC(=O)N1CCC[C@H]1c1nc(-c2ccc(C(=O)Nc3ccccn3)cc2)c2c(N)nccn12` [acalabrutinib], in series [1] (setting [12]), the “%-inhibition CaMK2δ” value is listed as -3.53%. Further, the “%-inhibition at 1 µmol/L, FGFR3” value in series [2] (setting [13]) is listed as -1.31%. Moreover, the “%-inhibition at 1 µmol/L, TYRO3” value in series [3] (setting [14]) was 3%. Also, the “%-inhibition at 1 µmol/L, SGK2” value in series [4] (setting [15]) is -19%. Moreover, in [5] (setting [16]), the “%-inhibition at 1 µmol/L, LYNa” value is listed as 2%. Moreover, the “%-inhibition, MARK1” value in series [6] (setting [17]) is listed as -3.49%. The “%-inhibition, MSK2” value in series [7] (setting [18]) was 1.53%. In addition, in series [8] (setting [19]), the “%-inhibition CHK1” value is recorded as -7%. For the same molecule, the “%-inhibition AurB” value in series [9] (setting [20]) was 11%. Further, the “%-inhibition, p70S6K” value in series [10] (setting [21]) is given as -14%. The “%-inhibition at 1 µmol/L, PLK1” value in [11] (setting [22]) was -2.57%.

As to `CCc1cc2c(cc1N1CCC(N3CCOCC3)CC1)C(C)(C)c1[nH]c3cc(C#N)ccc3c1C2=O` [alectinib], the “%-inhibition CaMK2δ” value in [1] (setting [12]) is 37%. Moreover, the “%-inhibition at 1 µmol/L, FGFR3” value in series [2] (setting [13]) is recorded as 8%. Besides, the “%-inhibition at 1 µmol/L, TYRO3” value in series [3] (setting [14]) is recorded as 30%. Also, in series [4] (setting [15]), the “%-inhibition at 1 µmol/L, SGK2” value is listed as -5%. Further, the “%-inhibition at 1 µmol/L, LYNa” value in series [5] (setting [16]) was 32%. Also, the “%-inhibition, MARK1” value in [6] (setting [17]) was 8%. For the same molecule, the “%-inhibition, MSK2” value in [7] (setting [18]) is recorded as 1.22%. For the same molecule, in [8] (setting [19]), the “%-inhibition CHK1” value is listed as 0.288%. For the same molecule, the “%-inhibition AurB” value in [9] (setting [20]) was 9%. The “%-inhibition, p70S6K” value in [10] (setting [21]) is reported as 2.73%. For the same molecule, the “%-inhibition at 1 µmol/L, PLK1” value in [11] (setting [22]) is -1.76%.

In the case of `COc1cc(N2CCC(N3CCN(C)CC3)CC2)ccc1Nc1ncc(Cl)c(Nc2ccccc2P(C)(C)=O)n1` [brigatinib], the “%-inhibition CaMK2δ” value in series [1] is listed as 101%. Besides, the “%-inhibition at 1 µmol/L, FGFR3” value in series [2] is 93%. Further, the “%-inhibition at 1 µmol/L, TYRO3” value in [3] is 27%. The “%-inhibition at 1 µmol/L, SGK2” value in series [4] is reported as -8%. For the same molecule, in [5], the “%-inhibition at 1 µmol/L, LYNa” value is 51%. For the same molecule, in series [6], the “%-inhibition, MARK1” value was 96%. Moreover, in series [7], the “%-inhibition, MSK2” value is 10%. The “%-inhibition CHK1” value in series [8] is 96%. Further, in series [9], the “%-inhibition AurB” value is reported as 46%. Moreover, the “%-inhibition, p70S6K” value in series [10] is reported as 33%. Besides, the “%-inhibition at 1 µmol/L, PLK1” value in [11] is 49%.
